Kd data for four molecules are collected here from paper PMC4655838, “Versatility in phospho-dependent molecular recognition of the XRCC1 and XRCC4 DNA-damage scaffolds by aprataxin-family FHA domains” (DNA Repair, 2015).

Format in all cases: binding
The target of assay [1] is T1, wild-type APLF FHA domain (Homo sapiens, UniProt Q8IW19).
T1 construct: APLF residues 1–106; GST (pGEX-6P-1) (N, cleaved yes); made in house; host or cells: Escherichia coli Rosetta2 (DE3)
T1 sequence (Q8IW19 1-106): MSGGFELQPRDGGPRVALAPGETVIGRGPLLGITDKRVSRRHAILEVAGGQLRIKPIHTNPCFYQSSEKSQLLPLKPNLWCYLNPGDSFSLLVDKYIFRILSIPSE
Briefly: ITC of wild-type APLF FHA domain with XRCC1 and XRCC4 phosphopeptides. The settings on record: 22 °C, 50 mM HEPES pH 7.5, 150 mM NaCl, 5 mM β-mercaptoethanol, peptide in syringe, XRCC1 peptides 1 mM into 100 μM protein, XRCC4 peptides 300 μM into 30 μM protein, single-site model, representative of triplicate. From the text:
(§1) The genes for aprataxin residues 1–105 and APLF residues 1–106 were amplified using primer sets which incorporated 5′ BamHI and 3′ XhoI sites. PCR products and pGEX-6P-1 vector were digested with BamHI and XhoI and religated. All point mutations were generated using a QuickChange Site-Directed Mutagenesis Kit (Stratagene) following the manufacturer's recommended protocol.
For expression, the pGEX-6P-1/aprataxin-FHA constructs were transformed into Escherichia coli strain BL21 (DE3) and the pGEX-6P-1/APLF-FHA constructs transformed into the strain Rosetta2 (DE3). Cells were grown in LB at 37 °C to an A600 of 0.5, induced with 0.4 mM isopropyl 1-thio-β-D-galactopyranoside and incubated at 18 °C for a further 16 h before harvesting. […]
Phosphopeptides based on the XRCC1 sequence 515-YAGSTDENTDSEEHQ-529 and the XRCC4 sequence 229-YDESTDEES-237 were synthesised with amidated C-termini to avoid potential end-effects of a free carboxy-terminus by Dr. W. Mawby (University of Bristol), purified by HPLC and characterised by mass spectrometry. FHA-phosphopeptide binding was quantified by isothermal titration calorimetry using a Microcal Omega VP-ITC calorimeter (MicroCal Inc., Northampton, MA). […] Heats of dilution were subtracted and binding isotherms were plotted and analysed with MicroCal origin version 7.0, assuming a single-site binding model.

The target in assay [2] is T2, wild-type aprataxin FHA domain (Homo sapiens, UniProt Q7Z2E3).
T2 construct: aprataxin residues 1–105; GST (pGEX-6P-1) (N, cleaved yes); made in house; host or cells: Escherichia coli BL21 (DE3)
Briefly: ITC of wild-type aprataxin FHA domain with XRCC1 and XRCC4 phosphopeptides. As to conditions: 22 °C, 50 mM HEPES pH 7.5, 150 mM NaCl, 5 mM β-mercaptoethanol, peptide in syringe, XRCC1 peptides 1 mM into 100 μM protein, XRCC4 peptides 300 μM into 30 μM protein, single-site model, representative of triplicate.
Excerpt: as §1
(§2) For expression, the pGEX-6P-1/aprataxin-FHA constructs were transformed into Escherichia coli strain BL21 (DE3) and the pGEX-6P-1/APLF-FHA constructs transformed into the strain Rosetta2 (DE3). Cells were grown in LB at 37 °C to an A600 of 0.5, induced with 0.4 mM isopropyl 1-thio-β-D-galactopyranoside and incubated at 18 °C for a further 16 h before harvesting. Cells were lysed by sonication and clarified by centrifugation (20,000 × g × 30 min). The supernatant was applied to a glutathione-4B resin (Amersham) and cleaved from the resin with rhinovirus 3C protease. Proteins were purified further by gel-filtration chromatography on a Superdex 75 matrix in 20 mM Tris pH 7.5, 150 mM NaCl, 5 mM DTT. Selenomethionine-labelled APLF L91 M protein was expressed in Rosetta2 (DE3) cells cultured in SelenoMet base media and nutrients supplemented with seleno-methionine solution (Molecular Dimensions Ltd.) and purified as the wild-type protein.
(§3) Phosphopeptides based on the XRCC1 sequence 515-YAGSTDENTDSEEHQ-529 and the XRCC4 sequence 229-YDESTDEES-237 were synthesised with amidated C-termini to avoid potential end-effects of a free carboxy-terminus by Dr. W. Mawby (University of Bristol), purified by HPLC and characterised by mass spectrometry. FHA-phosphopeptide binding was quantified by isothermal titration calorimetry using a Microcal Omega VP-ITC calorimeter (MicroCal Inc., Northampton, MA). Protein was dialysed against ITC buffer (50 mM HEPES pH 7.5, 150 mM NaCl, 5 mM β-mercaptoethanol) and peptides were dissolved in the dialysis buffer. Experiments were carried out at 22 °C and involved 30 successive 10 μl injections of peptide solution into a sample cell containing protein solution. Titrations with XRCC1 peptides used peptide at 1 mM and protein at 100 μM and titrations with XRCC4 peptides used peptide at 300 μm and protein at 30 μM. Heats of dilution were subtracted and binding isotherms were plotted and analysed with MicroCal origin version 7.0, assuming a single-site binding model.

The target of assay [3] is T3, K38A Mutant of aprataxin FHA domain (Homo sapiens, UniProt Q7Z2E3, K52A).
T3 construct: aprataxin residues 1–105; GST (pGEX-6P-1) (N, cleaved yes); made in house; host or cells: Escherichia coli BL21 (DE3)
Briefly: ITC of K38A mutant of aprataxin FHA domain with XRCC1 and XRCC4 phosphopeptides. The settings on record: 22 °C, 50 mM HEPES pH 7.5, 150 mM NaCl, 5 mM β-mercaptoethanol, single-site model.
Excerpt: as §1, §2, §3

Assay [4] addresses T4, R42A Mutant of aprataxin FHA domain (Homo sapiens, UniProt Q7Z2E3, R56A).
T4 construct: aprataxin residues 1–105; GST (pGEX-6P-1) (N, cleaved yes); made in house; host or cells: Escherichia coli BL21 (DE3)
Briefly: ITC of R42A mutant of aprataxin FHA domain with XRCC1 and XRCC4 phosphopeptides. As to conditions: 22 °C, 50 mM HEPES pH 7.5, 150 mM NaCl, 5 mM β-mercaptoethanol, single-site model.
Excerpt: as §1, §2, §3

Square brackets hold non-standard residues; d marks the D form. Peptide text beside a SMILES is read from it. pT = C[C@@H](OP(=O)(O)O)[C@H](N)C(=O)O; pS = N[C@@H](COP(=O)(O)O)C(=O)O

T2 sequence (Q7Z2E3 15-119): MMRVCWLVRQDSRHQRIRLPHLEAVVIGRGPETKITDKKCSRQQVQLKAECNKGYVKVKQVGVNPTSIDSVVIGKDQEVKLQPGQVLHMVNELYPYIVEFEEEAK
T4 sequence (Q7Z2E3 15-119 R56A): as the sequence (Q7Z2E3 15-119) above, with R42A counted along it
T3 sequence (Q7Z2E3 15-119 K52A): as the sequence (Q7Z2E3 15-119) above, with K38A counted along it

On to `C[C@H](NC(=O)[C@@H](N)Cc1ccc(O)cc1)C(=O)NCC(=O)N[C@@H](COP(=O)(O)O)C(=O)N[C@H](C(=O)N[C@@H](CC(=O)O)C(=O)N[C@@H](CCC(=O)O)C(=O)N[C@@H](CC(N)=O)C(=O)N[C@H](C(=O)N[C@@H](CC(=O)O)C(=O)N[C@@H](COP(=O)(O)O)C(=O)N[C@@H](CCC(=O)O)C(=O)N[C@@H](CCC(=O)O)C(=O)N[C@@H](Cc1c[nH]cn1)C(=O)N[C@@H](CCC(N)=O)C(N)=O)[C@@H](C)OP(=O)(O)O)[C@@H](C)OP(=O)(O)O` [YAGpSpTDENpTDpSEEHQ] (H-YAG[pS][pT]DEN[pT]D[pS]EEHQ-NH2), for which the results for the dissociation constant (Kd) in assay [1] and in assay [2] were 11 ± 0.3 µM and 0.87 ± 0.05 µM, respectively.

Take `C[C@@H](OP(=O)(O)O)[C@H](NC(=O)[C@H](CO)NC(=O)[C@H](CCC(=O)O)NC(=O)[C@H](CC(=O)O)NC(=O)[C@@H](N)Cc1ccc(O)cc1)C(=O)N[C@@H](CC(=O)O)C(=O)N[C@@H](CCC(=O)O)C(=O)N[C@@H](CCC(=O)O)C(=O)N[C@@H](CO)C(N)=O` [YDESpTDEES] (HELM PEPTIDE1{Y.D.E.S.[C[C@@H](OP(=O)(O)O)[C@H](N[*:1])C(=O)[*:2]].D.E.E.S.[am]}$$$$V2.0): the figures for the dissociation constant (Kd) in assay [3], in assay [4] and in assay [2] were 6.8 ± 0.5 µM, ≥ 100 µM and 2.1 ± 0.08 µM, respectively.

As for `C[C@@H](OP(=O)(O)O)[C@H](NC(=O)[C@H](COP(=O)(O)O)NC(=O)[C@H](CCC(=O)O)NC(=O)[C@H](CC(=O)O)NC(=O)[C@@H](N)Cc1ccc(O)cc1)C(=O)N[C@@H](CC(=O)O)C(=O)N[C@@H](CCC(=O)O)C(=O)N[C@@H](CCC(=O)O)C(=O)N[C@@H](CO)C(N)=O` [YDEpSpTDEES] (HELM PEPTIDE1{Y.D.E.[O=C([C@H](COP(=O)(O)O)N[*:1])[*:2]].[C[C@@H](OP(=O)(O)O)[C@H](N[*:1])C(=O)[*:2]].D.E.E.S.[am]}$$$$V2.0), the Kd is 1.9 ± 0.06 µM in assay [3], ≥ 100 µM in assay [4] and 0.25 ± 0.02 µM in assay [2].

In the case of `C[C@@H](OP(=O)(O)O)[C@H](NC(=O)[C@H](COP(=O)(O)O)NC(=O)[C@H](CCC(=O)O)NC(=O)[C@H](CC(=O)O)NC(=O)[C@@H](N)Cc1ccc(O)cc1)C(=O)N[C@@H](CC(=O)O)C(=O)N[C@@H](CCC(=O)O)C(=O)N[C@@H](CCC(=O)O)C(=O)N[C@@H](COP(=O)(O)O)C(N)=O` [YDEpSpTDEEpS] (H-YDE[pS][pT]DEE[pS]-NH2), the figures for the Kd in assay [3], in assay [4] and in assay [2] were 1.3 ± 0.05 µM, ≥ 100 µM and 0.14 ± 0.01 µM, respectively.
